“And” between values parts separate entries of the source, which are not always exact repeats. Equal entries are not always repeated. Where two headings read alike, the source gives them in different places.
What was measured:
Huh-7 cells = assay: Wound healing assay, Huh-7 cells; assay type: cell-based; details: 40, 60 and 80 nM, 24 h
Protocol: Hepatocellular cancer cells (HepG2 and Huh-7) were purchased from the cell bank of the Chinese Academy of Science (Shanghai, China). These cells were cultured in Dulbecco’s modified Eagle’s medium (DMEM) containing 10% fetal bovine serum (FBS), penicillin (100 units/mL) and streptomycin (100 units/mL) in a humidified atmosphere with 5% CO2 at 37 °C.
Wound healing assay was used to investigate the effect of cinobufotalin on the migration of HepG2 and Huh-7 cells. Cells were seeded into 6-well plates at the density of 4 × 10^5 cells/well and maintained until reaching monolayer confluence. The cells were scratched using 20-μL pipette tips and rinsed with PBS buffer for three times. And then the cells were cultured in serum-free medium containing different concentrations of cinobufotalin (40, 60, 80 nM). After treatment with cinobufotalin for different lengths of time (0 and 24 h), the width of wound was measured and the images of cells were acquired using inverted microscope (Leica, Wetzlar, German). The rate of wound healing = [(the wound width of 0 h - 24 h)/0 h wound width] × 100%. All experiments were performed in triplicate.

[1] = Stability in rat plasma under storage conditions; assay type: physicochemical
Protocol: (§1) In addition, the stabilities of cinobufotalin at 20, 200, and 2000 ng/mL in different storage conditions were evaluated, including short term stability (such as 25°C for 4, 8, 12, and 24 h and 4°C for 4, 8, 12, and 24 h), long term stability (-80°C for 10 days) and three freeze-thaw cycles in rat plasma. Stabilities were expressed as the concentrations after different operations to the concentration at time zero. All of the samples were processed as described in Preparation of rat plasma samples section. A 5 μL aliquot was injected to UPLC-QTOF/MS for analyses.

[2] = Pharmacokinetic study after i.v. injection in normal and DEN-injured rats; assay type: in vivo, Sprague Dawley rats; details: i.v. 2.5 mg/kg, two-compartment model; for AUC / C0 / clearance / half-life: male, Sprague Dawley, rat, plasma, iv; for half-life: read-out: t1/2β (converted)
Protocol: Male Sprague Dawley rats (200–220 g), used for pharmacokinetic (PK) studies, were purchased from Beijing Vital River Laboratory Animal Technology Co., Ltd. (Beijing, China). All animals were housed under standardized condition (12 h light/dark schedule), and they were kept 1 week prior to experiments for acclimation. All animal experiments were carried out in accordance with the National Institutes of Health guide for the care and use of Laboratory animals (NIH Publications No. 8023, revised 1978) and were approved by the Medical and Research Ethics Committee of College of Medicine, Henan University.
For PK studies, the rats were randomly divided into two experimental groups (10 rats for normal rats group and 20 rats for DEN-injured rats group, considering the animal casualties during the modeling process). HCC rat model was established by intraperitoneal administration of 50 mg/kg DEN two times per week ([Fuchs et al., 2014]), and the control group rats were treated with normal saline in the same way. After 14 weeks of administration, three rats were randomly selected and anesthetized by anesthesia cocktail (Ketamine 50 mg/mL, Xylazine 3.3 mg/mL and Acetopromazine 3.3 mg/mL). Then the liver was taken out and photographed to determine whether the animal model was successfully constructed.
Before PK experiment, a cannula was introduced into the jugular vein of the anesthetized rat and administrated carprofen subcutaneously after the surgery. After observation for 24 h, when the activity and excretion of rats were normal, rats were dosed with cinobufotalin at 2.5 mg/kg through jugular vein cannula. Blood samples (200 μL) were withdrawn at each pointed time (5, 10, 15, 30, 45 min, and 1, 1.5, 2, 4, 6, 8, 12, and 24 h) after dosing, and whole blood was transferred into tubes pre-treated with heparin (1000 U/mL). Then an equal volume of saline was injected into rats through jugular vein cannula immediately. The blood samples were immediately centrifuged at 4°C (8000 g, 10 min) to obtain the plasma, and the plasma samples were stored at -80°C until analysis. After sampling at the last time point, all rats were anesthetized immediately. Blood was washed out with ice-cold saline through the hepatic portal vein, and then liver tissues were removed, weighed and stored at -80°C until analysis.
Hundred microliter of plasma was transferred to a new clean tube, and samples were treated with protein precipitation assay as described in Preparation of rat plasma samples section. Then calibration curve was prepared to quantify the amount of cinobufotalin in plasma samples according to the steps as described in method validation part.
PK and statistical data analyses were performed using WinNonlin 3.3. The two-compartment model (two-compartment i.v.-Bolus, macro-constants, no lag time, first order elimination, Figure 2) was selected to obtain the PK parameters of cinobufotalin in rats. The model equation was as followed:
(3) C(t)=A∗EXP(−Alpha∗t)+B∗EXP(−Beta∗t)

[3] = Stability in 50% acetonitrile solution; assay type: physicochemical
Protocol: as §1
In addition, we also evaluated the stability of cinobufotalin in 50% accetonitrile solution at 4°C and room temperature (25°C) after storage for 4, 8, 12, and 24 h.

CYP3A4 = system: CYP3A4; design: method as in Han et al., 2016; details: especially mediated by CYP3A4; ref Han et al., 2016; cited from earlier work

**Q.** Which “migration of Huh-7 cells (wound healing)” value (Huh-7 cells) does the source give for `CC(=O)O[C@H]1[C@H]2O[C@]23[C@@H]2CC[C@]4(O)C[C@@H](O)CC[C@]4(C)[C@H]2CC[C@]3(C)[C@H]1c1ccc(=O)oc1` [Cinobufotalin] here?
**A.** Its value is “significantly attenuated”.

**Q.** And the “Stability in rat plasma, Freezing-thaw 3 cycles” value ([1]; 20 ng/mL)?
**A.** Its value is 99.2 ± 0.8%.

**Q.** And the “Stability in rat plasma, -80°C for 10 days” value ([1]; 200 ng/mL)?
**A.** The value was 100.9 ± 1.2%.

**Q.** What about the “Stability in rat plasma, Freezing-thaw 3 cycles” value ([1]; 200 ng/mL) of the same compound?
**A.** The value was 95.6 ± 1.6%.

**Q.** And the “Stability in rat plasma, -80°C for 10 days” value ([1]; 2000 ng/mL)?
**A.** Its value is 97.3 ± 5.6%.

**Q.** What about the “Stability in rat plasma, Freezing-thaw 3 cycles” value ([1]; 2000 ng/mL) of the same compound?
**A.** The value was 99.2 ± 0.6%.

**Q.** And the CL2 ([2]; DEN-injured rats)?
**A.** Its CL2 is 8.1 ± 1.7 L/h/kg.

**Q.** What about the K10 ([2]; DEN-injured rats) of the same compound?
**A.** The K10 was 1.0 ± 0.3^* 1/h.

**Q.** And the K21 ([2]; DEN-injured rats)?
**A.** The K21 was 0.3 ± 0.1 h⁻¹.

**Q.** And the V ([2]; DEN-injured rats)?
**A.** The V was 2.4 ± 0.6 L/kg.

**Q.** What about the V2 ([2]; DEN-injured rats) of the same compound?
**A.** Its V2 is 31.5 ± 10.4 L/kg.

**Q.** What about the K12 ([2]; DEN-injured rats, 2.5 mg/kg) of the same compound?
**A.** The K12 was 3.2 ± 0.8 h⁻¹.

**Q.** What about the t1/2α ([2]; DEN-injured rats, 2.5 mg/kg) of the same compound?
**A.** The t1/2α was 0.2 ± 0.1 h.

**Q.** And the AUC ([2]; 2.5 mg/kg, DEN-injured rats)?
**A.** The AUC was 1.1 ± 0.3 µg·h/mL.

**Q.** And the C0 ([2]; 2.5 mg/kg, DEN-injured rats)?
**A.** The C0 was 1.1 ± 0.3 µg/mL.

**Q.** What about the clearance ([2]; 2.5 mg/kg, DEN-injured rats) of the same compound?
**A.** The clearance was 2.4 L/h/kg.

**Q.** What about the half-life ([2]; 2.5 mg/kg, DEN-injured rats) of the same compound?
**A.** The half-life was 13.4 ± 5.8 h.

**Q.** And the AUC ([2]; 2.5 mg/kg, normal rats)?
**A.** Its AUC is 2.6 ± 0.5 µg·h/mL.

**Q.** And the C0 ([2]; 2.5 mg/kg, normal rats)?
**A.** Its C0 is 1.4 ± 0.4 µg/mL.

**Q.** What about the clearance ([2]; 2.5 mg/kg, normal rats) of the same compound?
**A.** The clearance was 1 L/h/kg.

**Q.** What about the half-life ([2]; 2.5 mg/kg, normal rats) of the same compound?
**A.** The half-life was 13.2 ± 1.3 h.

**Q.** And the CL2 ([2]; normal rats)?
**A.** Its CL2 is 3.3 ± 0.4 L/h/kg.

**Q.** What about the K10 ([2]; normal rats) of the same compound?
**A.** The K10 was 0.5 ± 0.2 h⁻¹.

**Q.** And the K21 ([2]; normal rats)?
**A.** Its K21 is 0.3 ± 0 h⁻¹.

**Q.** And the V ([2]; normal rats)?
**A.** The V was 2.1 ± 0.6 L/kg.

**Q.** And the V2 ([2]; normal rats)?
**A.** Its V2 is 13.1 ± 1.3 L/kg.

**Q.** And the t1/2α ([2]; normal rats)?
**A.** The t1/2α was 0.3 ± 0.1 h.

**Q.** And the K12 ([2]; normal rats, 2.5 mg/kg)?
**A.** Its K12 is 1.8 ± 0.5 h⁻¹ and 1.8 ± 0.8 h⁻¹.

**Q.** And the “Stability in 50% Acetonitrile solution, 4°C, 4 h” value ([3]; 20 ng/mL)?
**A.** Its value is 97.5 ± 5.7%.

**Q.** What about the “Stability in 50% Acetonitrile solution, 4°C, 8 h” value ([3]; 20 ng/mL) of the same compound?
**A.** The value was 101.9 ± 3.6%.

**Q.** What about the “Stability in 50% Acetonitrile solution, 4°C, 12 h” value ([3]; 20 ng/mL) of the same compound?
**A.** The value was 99.1 ± 2.5%.

**Q.** And the “Stability in 50% Acetonitrile solution, 4°C, 24 h” value ([3]; 20 ng/mL)?
**A.** The value was 100.4 ± 2.7%.

**Q.** What about the “Stability in 50% Acetonitrile solution, 25°C, 4 h” value ([3]; 20 ng/mL) of the same compound?
**A.** Its value is 99.5 ± 4.4%.

**Q.** And the “Stability in 50% Acetonitrile solution, 25°C, 8 h” value ([3]; 20 ng/mL)?
**A.** The value was 97.1 ± 2.3%.

**Q.** What about the “Stability in 50% Acetonitrile solution, 25°C, 12 h” value ([3]; 20 ng/mL) of the same compound?
**A.** Its value is 97.7 ± 4.6%.

**Q.** And the “Stability in 50% Acetonitrile solution, 25°C, 24 h” value ([3]; 20 ng/mL)?
**A.** Its value is 95.5 ± 4.3%.

**Q.** What about the “Stability in 50% Acetonitrile solution, 4°C, 4 h” value ([3]; 200 ng/mL) of the same compound?
**A.** Its value is 102.6 ± 6.8%.

**Q.** What about the “Stability in 50% Acetonitrile solution, 4°C, 8 h” value ([3]; 200 ng/mL) of the same compound?
**A.** Its value is 99.5 ± 4.0%.

**Q.** And the “Stability in 50% Acetonitrile solution, 4°C, 12 h” value ([3]; 200 ng/mL)?
**A.** Its value is 97.4 ± 2.9%.

**Q.** And the “Stability in 50% Acetonitrile solution, 4°C, 24 h” value ([3]; 200 ng/mL)?
**A.** The value was 96.7 ± 2.6%.

**Q.** What about the “Stability in 50% Acetonitrile solution, 25°C, 4 h” value ([3]; 200 ng/mL) of the same compound?
**A.** The value was 100.1 ± 2.8%.

**Q.** And the “Stability in 50% Acetonitrile solution, 25°C, 8 h” value ([3]; 200 ng/mL)?
**A.** The value was 101.2 ± 2.0%.

**Q.** And the “Stability in 50% Acetonitrile solution, 25°C, 12 h” value ([3]; 200 ng/mL)?
**A.** The value was 99.5 ± 4.3%.

**Q.** What about the “Stability in 50% Acetonitrile solution, 25°C, 24 h” value ([3]; 200 ng/mL) of the same compound?
**A.** Its value is 99.0 ± 2.8%.

**Q.** And the “Stability in 50% Acetonitrile solution, 4°C, 4 h” value ([3]; 2000 ng/mL)?
**A.** Its value is 102.0 ± 5.0%.

**Q.** And the “Stability in 50% Acetonitrile solution, 4°C, 8 h” value ([3]; 2000 ng/mL)?
**A.** Its value is 103.7 ± 3.5%.

**Q.** And the “Stability in 50% Acetonitrile solution, 4°C, 12 h” value ([3]; 2000 ng/mL)?
**A.** The value was 96.3 ± 4.0%.

**Q.** And the “Stability in 50% Acetonitrile solution, 4°C, 24 h” value ([3]; 2000 ng/mL)?
**A.** Its value is 97.9 ± 2.5%.

**Q.** What about the “Stability in 50% Acetonitrile solution, 25°C, 4 h” value ([3]; 2000 ng/mL) of the same compound?
**A.** The value was 100.3 ± 3.0%.

**Q.** What about the “Stability in 50% Acetonitrile solution, 25°C, 8 h” value ([3]; 2000 ng/mL) of the same compound?
**A.** The value was 99.1 ± 1.1%.

**Q.** And the “Stability in 50% Acetonitrile solution, 25°C, 12 h” value ([3]; 2000 ng/mL)?
**A.** Its value is 98.4 ± 3.5%.

**Q.** What about the “Stability in 50% Acetonitrile solution, 25°C, 24 h” value ([3]; 2000 ng/mL) of the same compound?
**A.** The value was 100.5 ± 3.3%.

**Q.** And the “metabolic pathways in human liver microsomes” value (CYP3A4)?
**A.** The value was “undergo hydroxylation and dehydrogenation”.
